Assay results reported in patent publication US20110110916A1, “METHODS FOR TREATING AND/OR PREVENTING CARDIOMYOPATHIES BY ERK OR JNK INHIBITION” (priority 2008, published 2011).
Entries after “also recorded” stand apart in the source; their conditions may differ.

Tests used:
Type in all cases: in vivo, mouse
Lmna^H222P/H222P mice [1] = assay: Transthoracic echocardiography at 20 weeks of age, PD98059 or SP600125 from 16 to 20 weeks; details: for LVESD compared to DMSO-treated mice: 3 mg/kg/day; for FS and EF: after 4 weeks of treatment; for HR: heart rate; for further deterioration in cardiac function: treated from 16 to 20 weeks of age
Method: Using the methods described in Example 2, we treated Lmna^H222P/H222P mice with PD98059 alone or SP600125 alone, starting at 16 weeks of age, when ejection fraction has already deteriorated and left ventricular end diastolic diameter is increased, until 20 weeks of age.
(§1) SP600125, an anthrapyrazolone inhibitor of JNK, and PD98059, a 2′-amino-3′-methoxyflavone MAPK/ERK kinase (MEK) ½ inhibitor, (Calbiochem) were dissolved in dimethyl sulfoxide (DMSO) (Sigma) at a concentration of 1 mg/ml and were delivered to a dose of 3 mg/kg/day for 5 days a week. The placebo control consisted of DMSO alone and was delivered in the same volume. Placebo and inhibitors were administered by intraperitoneal injection using a 27⅝-gauge syringe. Treatments were started when mice were 16 weeks of age and continued until 20 weeks of age or when the mice were 19 weeks and continued until 24 weeks of age.
(§2) At 20 weeks or 24 weeks of age, mice were anesthetized with 1.5% isoflurane in O2 and placed on a heating pad (37° C.). Cardiac function was assessed by echocardiography with a Visualsonics Vevo 770 ultrasound with a 30 MHz transducer applied to the chest wall. Cardiac ventricular dimensions and fractional shortening (FS) were measured in 2D mode and M-mode three times in a modified short axis view for the number of animals indicated. A “blinded” echocardiographer (J.S.), unaware of the genotype or treatment, performed the examinations.
We assigned male Lmna^H222P/H222P mice 16 weeks of age to 3 different treatment arms (placebo DMSO, n=28; MEK1/2 inhibitor PD98059, n=22; JNK inhibitor SP600125, n=29) and examined parameters of cardiac structure and function at 20 weeks of age, after 4 weeks treatment. […] Lmna^H222P/H222P mice also have depressed cardiac contractility, with fractional shortening (FS) decreased by 20%-40% compared to Lmna^+/+ mice (13,15). Myocardial fibrosis occurs in Lmna^H222P/H222P mice at 16 weeks of age (16). At 20 weeks, LVEDD and LVESD increase further in Lmna^H222P/H222P mice and cardiac contractility also progressively deteriorates (16). During the 4-week treatment protocol, 6 mice in the DMSO group, 3 in the PD98059 group and 3 in the SP600125 group died prior to reaching 20 weeks of age for evaluation.

Lmna^H222P/H222P mice [2] = assay: Pilot study: echocardiography at 24 weeks of age, treatment from 19 to 24 weeks; details: 3 mg/kg/day from 19 to 24 weeks, pilot study n=3
Method: as §1, §2
In a pilot study, we assessed treatment of Lmna^H222P/H222P mice with PD98059 and SP600125 at a more advanced stage of disease and for a longer time. […]

ERK1/2 = assay: Immunoblot of phosphorylated ERK1/2 versus total ERK1/2 in hearts of treated mice
Method: Hearts were excised from mice at 16-weeks of age and were homogenized in RIPA extraction buffer (Cell Signalling) containing protease inhibitors (25 […]). Protein samples were subjected to SDS-PAGE, transferred to nitrocellulose membranes and blotted with primary antibodies against ERK1/2 (Santa-Cruz), phosphorylated ERK1/2 (Cell Signaling), JNK (Santa-Cruz), natriuretic peptide precursor A (Santa-Cruz), phosphorylated JNK (Cell Signaling), and Gapdh (Ambion). Secondary antibodies were HRP-conjugated (Amersham). Recognized proteins were visualized by enhanced chemiluminescence (ECL, Amersham). The signal generated using an antibody against Gapdh was used as internal controls to normalize the amounts of protein between immunoblots.
We assessed the efficacy of the chemical entities in inhibiting their targets in the heart by immunoblot using anti-total ERK1/2 (Santa Cruz) and anti-pERK1/2 (Cell Signaling) antibodies.
Proteins were loaded on 10% SDS gels and electrotransferred on a […] pore size nitrocellulose membrane (Invitrogen). We used antibodies directed against phosphorylated ERK1/2 (Cell Signaling, 1:1,000), total ERK1/2 (Santa Cruz, 1:2,000), phosphorylated JNK (Cell Signaling, 1:1,000) and total JNK (Santa Cruz, 1:200). The secondary antibodies were coupled to horseradish-peroxydase (Amersham). Recognized proteins were visualized by enhanced chemiluminescence (SuperSignal® West Pico chemiluminescent substrate, Thermo Scientific).

[3] = test system: hearts from Lmna^H222P/H222P mice; assay: Histopathological analysis of hearts (left ventricle, cardiomyocyte nuclear length); details: for mean lengths of nuclei in cardiomyocytes compared to the DMSO-treated group: 20 weeks of age, treated 16 to 20 weeks
Method: Mice were sacrificed at 16 weeks of age and freshly removed hearts were fixed in 4% formaldehyde for 48 hours, embedded in paraffin, sectioned at […] and stained with hematoxylin and eosin and Masson's trichrome. Representative stained sections were photographed using a Microphot SA (Nikon) light microscope attached to a Spot RT Slide camera (Diagnostic Instruments). Images were processed using Adobe Photoshop 6.0 (Adobe Systems). Length of cardiomyocytes was measured using Scion Image software (Scion Corporation). Data were reported as means±standard deviations and are compared with respective controls using a two-tailed t test.
Mice were sacrificed at 20 weeks of age, and freshly removed hearts were fixed in 4% formaldehyde for 48 hours, embedded in paraffin, sectioned at 5 μm and stained with hematoxylin, eosin and Gomori's trichrome and Syrius Red. Representative stained sections were photographed using a Microphot SA (Nikon) light microscope attached to a Spot RT Slide camera (Diagnostic Instruments) with a 10× objective. Images were processed using Adobe Photoshop CS (Adobe Systems).

[4] = 20 weeks of age, 3 mg/kg/day i.p. from 16 to 20 weeks
[5] = 20 weeks of age, 3 mg/kg/day i.p. from 16 to 20 weeks, means ± SEM
[6] = Lmna^H222P/H222P mice at 20 weeks of age, treated from 16 to 20 weeks, means ± SEM
[7] = Lmna^H222P/H222P mice at 20 weeks of age, treated from 16 to 20 weeks, means ± standard deviations
[8] = Lmna^H222P/H222P mice at 20 weeks of age, treated from 16 to 20 weeks
[9] = 3 mg/kg/day from 16 to 20 weeks of age
[10] = treated 8 to 16 weeks of age, 3 mg/kg/day i.p.

For `COc1cccc(-c2cc(=O)c3ccccc3o2)c1N` [PD98059, 2-(2-amino-3-methoxyphenyl)-4H-1-benzopyran-4-one], which “LVEDD compared to DMSO-treated mice” value (Lmna^H222P/H222P mice [1]; [4]) is on record?
The value was “not significantly different”.

And the “increase of EF compared to the DMSO-treated group” value (Lmna^H222P/H222P mice [1]; [4])?
Its value is “approximately 22%”.

What about the “LVESD compared to DMSO-treated mice” value (Lmna^H222P/H222P mice [1]; [4]) of the same molecule?
Its value is “significantly smaller; also recorded: statistically significant reduction”.

What about the EF (Lmna^H222P/H222P mice [1]; [5]) of the same molecule?
Its EF is 65.46%±2.64%.

And the “FS and EF” value (Lmna^H222P/H222P mice [1]; 20 weeks of age)?
Its value is “increased”.

What about the EF (Lmna^H222P/H222P mice [1]; [6]) of the same molecule?
The EF was 65.46 ± 2.64 %.

And the FS (Lmna^H222P/H222P mice [1]; [6])?
The FS was 35.91 ± 1.88 %.

What about the LVEDD (Lmna^H222P/H222P mice [1]; [6]) of the same molecule?
The LVEDD was 3.55 ± 0.11 mm.

And the LVESD (Lmna^H222P/H222P mice [1]; [6])?
Its LVESD is 2.41 ± 0.11 mm.

And the EF (Lmna^H222P/H222P mice [1]; [7])?
The EF was 65.46 ± 11.49 %.

What about the FS (Lmna^H222P/H222P mice [1]; [7]) of the same molecule?
The FS was 35.91 ± 8.21 %.

What about the IVSD (Lmna^H222P/H222P mice [1]; [7]) of the same molecule?
Its IVSD is 0.66 ± 0.05 mm.

And the LVEDD (Lmna^H222P/H222P mice [1]; [7])?
The LVEDD was 3.55 ± 0.50 mm.

What about the LVESD (Lmna^H222P/H222P mice [1]; [7]) of the same molecule?
The LVESD was 2.41 ± 0.50 mm.

And the LVPW (Lmna^H222P/H222P mice [1]; [7])?
Its LVPW is 0.69 ± 0.08 mm.

What about the HR (Lmna^H222P/H222P mice [1]; [8]) of the same molecule?
The HR was 350 beats per minute.

What about the “further deterioration in cardiac function” value (Lmna^H222P/H222P mice [1]) of the same molecule?
The value was “prevented further deterioration”.

What about the “LV dilatation and FS compared to DMSO-treated mice” value (Lmna^H222P/H222P mice [2]) of the same molecule?
Its value is “decreased LV dilatation and increased FS”.

What about the “phosphorylation of ERK1/2 in hearts” value (ERK1/2; [9]) of the same molecule?
The value was “partially blocked”.

What about the “phosphorylation of ERK1/2 in hearts” value (ERK1/2; pilot study, 24 week-old mice treated from 19 weeks) of the same molecule?
Its value is “partially blocked”.

And the “phosphorylation of ERK1/2 in hearts” value (ERK1/2; [10])?
The value was “inhibited”.

And the “abnormal elongation of cardiomyocyte nuclei” value ([3]; 16 week-old mice, treated 8 to 16 weeks)?
Its value is “prevented”.

And the “mean lengths of nuclei in cardiomyocytes compared to the DMSO-treated group” value [3]?
The value was “significantly shorter”.

For `O=C1c2ccccc2-c2n[nH]c3cccc1c23` [SP600125, anthra[1,9-cd]pyrazol-6(2H)-one], which “LVEDD compared to DMSO-treated mice” value (Lmna^H222P/H222P mice [1]; [4]) is on record?
The value was “not significantly different”.

And the “LVESD compared to DMSO-treated mice” value (Lmna^H222P/H222P mice [1]; [4])?
The value was “significantly smaller; also recorded: statistically significant reduction”.

And the EF (Lmna^H222P/H222P mice [1]; [5])?
The EF was 61.88%±1.66%.

And the “FS and EF” value (Lmna^H222P/H222P mice [1]; 20 weeks of age)?
Its value is “increased”.

And the EF (Lmna^H222P/H222P mice [1]; [6])?
Its EF is 61.88 ± 1.66 %.

What about the FS (Lmna^H222P/H222P mice [1]; [6]) of the same molecule?
The FS was 33.11 ± 1.16 %.

What about the LVEDD (Lmna^H222P/H222P mice [1]; [6]) of the same molecule?
Its LVEDD is 3.73 ± 0.08 mm.

What about the LVESD (Lmna^H222P/H222P mice [1]; [6]) of the same molecule?
The LVESD was 2.67 ± 0.10 mm.

And the EF (Lmna^H222P/H222P mice [1]; [7])?
Its EF is 61.88 ± 8.46 %.

And the FS (Lmna^H222P/H222P mice [1]; [7])?
Its FS is 33.11 ± 5.92 %.

And the IVSD (Lmna^H222P/H222P mice [1]; [7])?
Its IVSD is 0.63 ± 0.07 mm.

And the LVEDD (Lmna^H222P/H222P mice [1]; [7])?
Its LVEDD is 3.73 ± 0.42 mm.

And the LVESD (Lmna^H222P/H222P mice [1]; [7])?
Its LVESD is 2.67 ± 0.49 mm.

And the LVPW (Lmna^H222P/H222P mice [1]; [7])?
The LVPW was 0.66 ± 0.09 mm.

What about the HR (Lmna^H222P/H222P mice [1]; [8]) of the same molecule?
Its HR is 363 beats per minute.

And the “further deterioration in cardiac function” value (Lmna^H222P/H222P mice [1])?
The value was “prevented further deterioration”.

And the “LV dilatation and FS compared to DMSO-treated mice” value (Lmna^H222P/H222P mice [2])?
The value was “trend toward decreased LV dilatation and increased FS”.

And the “phosphorylation of ERK1/2 in hearts” value (ERK1/2; [9])?
The value was “not significantly inhibited”.

And the “phosphorylation of ERK1/2 in hearts” value (ERK1/2; [10])?
Its value is “did not block”.

And the “mean lengths of nuclei in cardiomyocytes compared to the DMSO-treated group” value [3]?
The value was “significantly shorter”.
